The results in this text go back to PubChem BioAssay (NCI).

Test systems include DU-145 prostate; HS 578T breast; MCF7 breast; MDA-MB-435; PC-3 prostate; T-47D breast.
Holding throughout (experiment): growth of human tumour cells (NCI), 48 h

Each structure is given as a SMILES string.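 Each compound was tested at five concentrations against cells in 96-well plates for 48 hours. GI50 is the concentration that inhibits growth by half. Definition used: TGI = concentration required for complete inhibition of growth.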 Where a SMILES comes first, the peptide text is derived from it. [ ]: non-standard residue; d: D form.

Consider `CC(=O)OC1=C(CC(C)(C)C)C(=O)c2ccccc2C1=O`, for which the TGI with DU-145 prostate was above 100 µM; in the test on HS 578T breast, 50.5 µM; in the test with MCF7 breast, above 100 µM; in the test with MDA-MB-435, 60.8 µM; in the test with PC-3 prostate it was above 100 µM; in the test with T-47D breast, above 100 µM.
In the case of `C[C@@H]1Cc2c(ccc3[nH]ncc23)[C@@H](c2ccc(NC3CN(CCCF)C3)cn2)N1CC(F)(F)F`, the GI50 was 35.2 µM in the test on DU-145 prostate; 15 µM in the test with HS 578T breast; below 0.01 µM with MCF7 breast; 17.2 µM in the test on MDA-MB-435; 15.6 µM with PC-3 prostate; below 0.01 µM with T-47D breast. Moreover, the TGI in the test with DU-145 prostate was above 100 µM; with HS 578T breast, 41 µM; in the test with MCF7 breast, 16.1 µM; in the test with MDA-MB-435, 34.8 µM; in the test with PC-3 prostate, 47.8 µM; in the test with T-47D breast, 23.2 µM.
As for `CSCC[C@H](NC(=O)[C@@H](N)CC(N)=O)C(=O)N[C@@H](Cc1c[nH]c2ccccc12)C(=O)N[C@@H](CCC(N)=O)C(=O)N[C@@H](CCC(=O)O)C(=O)N[C@H](C(=O)NCC(=O)N[C@@H](CCCCN)C(=O)N[C@H](C)C(=O)O)C(C)C` (H-NMWQEVGK[dA]-OH), the TGI with DU-145 prostate, in the test with HS 578T breast, with MCF7 breast, in the test on MDA-MB-435, in the test with PC-3 prostate and in the test on T-47D breast was above 100 µM in each case.
For the molecule `NC1=C(O)C(=O)C(c2c[nH]c3ccc(OCc4ccccc4)cc23)O1` (stereo not given), the TGI in the test with DU-145 prostate, in the test on HS 578T breast, in the test with MCF7 breast, in the test on MDA-MB-435, with PC-3 prostate and in the test with T-47D breast was above 100 µM in each case.
With `N=C1C=C(N)C(=O)c2ccccc21`, the GI50 is 0.191 µM in the test on DU-145 prostate; 0.353 µM in the test with HS 578T breast; 0.188 µM with MCF7 breast; 0.163 µM in the test on MDA-MB-435; 0.281 µM in the test with PC-3 prostate; 0.261 µM in the test with T-47D breast. Moreover, the TGI amounted to 0.345 µM in the test with DU-145 prostate; 0.391 µM with MCF7 breast; 0.31 µM with MDA-MB-435; 1.34 µM with PC-3 prostate; 0.671 µM in the test with T-47D breast.
Take `Cc1cc2nc(-c3ccc(O)c(O)c3)n(Cc3ccc(O)c(O)c3)c2cc1C`: the GI50 was 40.7 µM in the test with DU-145 prostate; 41.3 µM with HS 578T breast; 24.4 µM in the test on MCF7 breast; 16 µM with MDA-MB-435; 22.5 µM in the test on PC-3 prostate; 31.8 µM with T-47D breast. Besides, the TGI in the test on DU-145 prostate is above 100 µM; with HS 578T breast, above 100 µM; with MCF7 breast, 80.7 µM; in the test with MDA-MB-435 it was above 100 µM; in the test on PC-3 prostate, above 100 µM; with T-47D breast it was above 100 µM.
In the case of `CN(C)Cc1cc(C(C)(C)C)cc(CN(C)C)c1O`, the TGI in the test with DU-145 prostate, in the test with HS 578T breast, with MCF7 breast, in the test with MDA-MB-435, in the test on PC-3 prostate and with T-47D breast was above 100 µM throughout.
With `C=C1C(=O)OC2(C)CCC1CC1OC1(C)CCC=C(C)CCC2O` (stereo not given), the TGI with DU-145 prostate, with HS 578T breast, with MCF7 breast, with MDA-MB-435, in the test on PC-3 prostate and in the test on T-47D breast was above 100 µM each time.
For the molecule `COc1ccc(F)cc1-c1ccnc2[nH]c(C3=CCN(C4CCC(CC(=O)O)CC4)CC3)cc12` (stereo not given), the GI50 in the test on DU-145 prostate was 0.346 µM; in the test with HS 578T breast it was 0.177 µM; in the test on MCF7 breast, 0.0625 µM; with MDA-MB-435, 0.221 µM; with PC-3 prostate, 0.313 µM; with T-47D breast it was 0.187 µM. The TGI with DU-145 prostate is above 100 µM; in the test with HS 578T breast it was 0.965 µM; in the test with MCF7 breast, 26.9 µM; with MDA-MB-435 it was 1.05 µM; with PC-3 prostate, above 100 µM; with T-47D breast, above 100 µM.
As for `COc1cc2c(=O)n(CC3CCCCC3)c3c4cc[nH]c4ncc3c2cc1OC`, the GI50 in the test on DU-145 prostate was 4.96 µM; in the test on HS 578T breast, 0.719 µM; in the test with MCF7 breast it was 0.64 µM; with MDA-MB-435 it was 4.15 µM; with PC-3 prostate, 2.23 µM; in the test with T-47D breast, 3.66 µM. Further, the TGI in the test with DU-145 prostate is 19.6 µM; in the test with HS 578T breast, 4.09 µM; in the test on MCF7 breast, above 50 µM; with MDA-MB-435, above 50 µM; with PC-3 prostate, 12.2 µM; in the test with T-47D breast it was above 50 µM.
Regarding `CNc1nc(-c2ccc3c(N)n[nH]c3c2)cc(N2C[C@@H](C(=O)NC3CCCCC3)CC[C@H]2C)n1`, the GI50 was 5.91 µM in the test with DU-145 prostate; 1.06 µM in the test on HS 578T breast; 0.996 µM in the test with MCF7 breast; 1.11 µM with MDA-MB-435; 0.405 µM in the test with PC-3 prostate; 0.13 µM with T-47D breast. Besides, the TGI in the test on DU-145 prostate amounted to 21.3 µM; with HS 578T breast it was 8.86 µM; with MCF7 breast, 11.2 µM; in the test on MDA-MB-435 it was 14.4 µM; in the test on PC-3 prostate, 18.4 µM; with T-47D breast it was 5.3 µM.
Turning to `O=C(/C=C/c1ccc(Cl)cc1Cl)c1ccc(Cl)cc1Cl`, the GI50 in the test with DU-145 prostate was 29.5 µM; in the test on HS 578T breast it was 20.1 µM; with MCF7 breast it was 7.88 µM; with MDA-MB-435, 16.7 µM; in the test with PC-3 prostate it was 24.4 µM; in the test with T-47D breast, 24.2 µM. For the same molecule, the TGI is above 100 µM with DU-145 prostate; 58.2 µM with HS 578T breast; above 24 µM with MCF7 breast; 35.3 µM in the test with MDA-MB-435; 64.3 µM with PC-3 prostate; above 72.7 µM in the test with T-47D breast.
Regarding `CS(=O)(=O)CCNCc1ccoc1-c1ccc2ncnc(Nc3ccc(OCc4ccccc4)cc3)c2c1`, the GI50 was above 25 µM with DU-145 prostate; 2.28 µM in the test on HS 578T breast; 8.54 µM in the test with MCF7 breast; above 25 µM with MDA-MB-435; above 25 µM in the test on PC-3 prostate; 7.86 µM in the test on T-47D breast. The TGI in the test with DU-145 prostate, in the test on HS 578T breast, in the test on MCF7 breast, with MDA-MB-435, with PC-3 prostate and in the test on T-47D breast was above 25 µM each time.
